Test results: US20180318241A1, “TREATMENT OF NERVOUS SYSTEM DISORDERS USING THYROID HORMONE NEUTRAL DOSES OF RXR AGONISTS” (Io Therapeutics, Inc., priority 2015, published 2018)
Entries after “also recorded” stand apart in the source; their conditions may differ.

Columns and labels:
LXRα/RXR = test: Permissive heterodimer transactivation assay in CV-1 cells; assay type: cell-based; details: 20 hr, relative to T0901317
From the text: (§1) For PPARγ: CV-1 cells were transfected with 3×(rAOX/DR1)-tk-Luc reporter gene and an expression vector for PPARγ. For FXR:CV-1 cells were transfected with 3×(IBABP/IRI)-tk-Luc reporter gene and vectors for FXR and RXRα. For LXR:CV-1 cells were transfected with 3×(PLTP/LXRE)-tk-Luc reporter gene with vectors for LXRα or LXRβ. For Nurr1: COS7 cells were transfected with 3×NBRE-tk-luc reporter gene and full length Nurr-1 with or without full-length RXRα plasmid. […] Luciferase data were normalized to co-transfected β-gal activity. Luciferase activity was expressed as percent of maximal activity obtained using specific agonists. Rosiglitazone (PPARγ), GW4064 (FXR), T0901317 (LXR).

LXRβ/RXR = test: as above; assay type: cell-based; details: 20 hr, relative to T0901317
From the text: as §1

FXR/RXR = biological target: T1, FXR/RXR (Homo sapiens, UniProt P19793); test: as above; assay type: cell-based; details: 20 hr, relative to GW4064
T1 construct: expressed in transfected cells; host or cells: CV-1
T1 sequence (P19793 1-462): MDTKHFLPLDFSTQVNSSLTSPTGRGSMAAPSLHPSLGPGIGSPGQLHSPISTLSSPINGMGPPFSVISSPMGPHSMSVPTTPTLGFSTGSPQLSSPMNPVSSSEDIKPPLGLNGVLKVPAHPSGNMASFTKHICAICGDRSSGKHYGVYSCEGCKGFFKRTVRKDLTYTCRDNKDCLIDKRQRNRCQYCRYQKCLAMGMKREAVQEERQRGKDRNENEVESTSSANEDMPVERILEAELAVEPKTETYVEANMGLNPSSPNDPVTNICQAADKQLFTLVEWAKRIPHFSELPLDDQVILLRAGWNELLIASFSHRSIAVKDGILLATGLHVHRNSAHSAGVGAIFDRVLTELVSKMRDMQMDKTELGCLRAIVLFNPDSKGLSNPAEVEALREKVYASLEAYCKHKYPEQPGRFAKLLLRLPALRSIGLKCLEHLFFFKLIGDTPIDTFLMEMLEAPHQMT
T1 sequence (Q96RI1 1-486 partner): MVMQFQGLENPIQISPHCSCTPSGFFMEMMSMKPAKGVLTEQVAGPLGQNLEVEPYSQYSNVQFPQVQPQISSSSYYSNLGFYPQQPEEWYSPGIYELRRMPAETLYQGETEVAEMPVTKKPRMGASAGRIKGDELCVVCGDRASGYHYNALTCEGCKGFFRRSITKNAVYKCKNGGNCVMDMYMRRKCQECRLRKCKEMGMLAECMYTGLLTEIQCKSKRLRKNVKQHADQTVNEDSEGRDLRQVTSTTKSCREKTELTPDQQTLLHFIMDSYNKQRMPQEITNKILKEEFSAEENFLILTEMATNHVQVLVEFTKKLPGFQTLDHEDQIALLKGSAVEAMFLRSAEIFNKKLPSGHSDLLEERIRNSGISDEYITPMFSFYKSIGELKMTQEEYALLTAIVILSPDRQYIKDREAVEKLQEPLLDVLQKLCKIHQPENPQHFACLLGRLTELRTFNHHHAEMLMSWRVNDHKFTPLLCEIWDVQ
From the text: as §1

[1] = tested on: oligodendrocyte precursor cells (OPCs); test: OPC differentiation into oligodendrocytes (PLP-EGFP); assay type: cell-based, mouse
From the text: OPCs were generated from a neurosphere culture of E14.5 PLP-EGFP (on C57BL/6J background) mouse brains. […] The EGFP expressing cells were quantified with Cellomics Neuronal Profiling Algorithm.
The EGFP expressing cells in controls and all compounds were quantified with Cellomics Neuronal Profiling Algorithm.

[2] = tested on: ethidium bromide induced demyelination of caudal cerebellar peduncles in rats; test: Focal ethidium bromide induced demyelination, remyelination analysis; assay type: in vivo, rat
Experimental: The experiment uses rats of relatively advanced age (1 year) since such rats undergo remyelination in a less efficient manner, thereby providing data that are more relevant to the clinical treatment of human patients with multiple sclerosis or other demyelination disorders.
Focal demyelination is induced in one year old rats (approximately 300 g in weight) by injecting stereotactically 5 μl of ethidium bromide solution (0.01% vol/vol in saline) in a bilateral manner into the caudal cerebellar peduncles (CCP). […] The rats are killed on day 24 post-ethidium bromide treatment for analysis of remyelination by quantitative polymerase chain reaction (qPCR) and microscopy. Serum T4 levels are determined before initiation of treatment and weekly thereafter and at study termination.

RXRγ = biological target: T2, RXRγ (Homo sapiens, UniProt P48443); test: RXR homodimer transactivation assay (rCRBPII/RXRE-tk-Luc) in CV-1 cells; assay type: cell-based
T2 construct: an expression construct including a full length RXRα, RXRβ, or RXRγ; expressed in transfected cells; host or cells: CV-1
T2 sequence (P48443 1-463): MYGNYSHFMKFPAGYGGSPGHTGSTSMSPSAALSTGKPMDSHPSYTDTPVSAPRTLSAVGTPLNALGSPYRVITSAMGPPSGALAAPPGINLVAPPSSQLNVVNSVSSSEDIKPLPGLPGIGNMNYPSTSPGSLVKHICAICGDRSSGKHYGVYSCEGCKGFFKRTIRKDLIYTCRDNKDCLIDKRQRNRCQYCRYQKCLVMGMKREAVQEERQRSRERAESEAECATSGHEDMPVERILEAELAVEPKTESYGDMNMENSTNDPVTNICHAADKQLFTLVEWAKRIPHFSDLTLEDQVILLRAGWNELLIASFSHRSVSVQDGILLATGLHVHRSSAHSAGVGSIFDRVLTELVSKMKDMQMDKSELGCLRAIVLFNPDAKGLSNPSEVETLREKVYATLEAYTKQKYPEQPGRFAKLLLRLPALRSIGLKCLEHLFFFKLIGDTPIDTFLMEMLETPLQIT
Experimental: To determine whether a RXR agonist can mediate its effects via RXRα receptor homodimers, RXRβ receptor homodimers, RXRγ receptor homodimers, or any combination thereof, or the corresponding RAR/RXR heterodimers, receptor-mediated transactivation assays were performed. For transactivation assays assessing RXR homodimer signaling, CV-1 cells were transfected with 1) an expression construct including a full length RXRα, RXRβ, or RXRγ; and 2) a rCRBPII/RXRE-tk-Luc reporter construct that included RXR homodimer-specific RXRE/DR1 responsive element linked to a luciferase gene. For transactivation assays assessing RAR/RXR heterodimer signaling, CV-1 cells were transfected with 1) an expression construct comprising a fusion protein including an estrogen receptor (ER) DNA binding domain linked to the ligand binding domain of RARα, RARβ, or RARγ and 2) a ERE-tk-Luc reporter construct that included an estrogen receptor responsive element linked to a luciferase gene. The ER-RAR fusion proteins provided an accurate readout of only the transfected ER-RAR. […] Data are mean values±SE from five independent experiments.

[3] = tested on: multiple sclerosis (MS) patients; test: Placebo-controlled clinical trial of thyroid hormone neutral doses in relapsing-remitting MS; assay type: in vivo, human; details: 30 to 180 days
Experimental: Patients with relapsing-remitting MS are recruited to participate in the clinical trial and are provided informed consent describing risks and potential benefits of participation. […] Patients are dosed for a minimum of 30 days, and as long as 180 days. […] Serum T4 levels will continue to be determined on a weekly basis.
Patients are assessed for the status of myelin damage and speed of repair of demyelination in MS lesions that occur over this period of time in their brains, spinal cords, and/or optic nerves. Quantitation of myelin damage and repair is performed at baseline and periodically through the dosing, using specialized imaging methods, which specifically examine and quantitate myelin damage and repair in these parts of the nervous system. […] This compound is useful for useful for quantitating myelin repair. […] In addition to the quantitation of myelin damage and repair by imaging methods, the clinical status of the MS patients' disease progression is preliminarily evaluated using standard clinical endpoints for MS clinical trials, such as the Expanded Disability Status Scale (EDSS). The EDSS is a 10 point scale which quantitates the MS patients' levels of disability by evaluating physical activities of daily life, such as walking, swallowing, bowel and bladder function, etc.

RARα = RARα (Homo sapiens, UniProt P10276); details: RARs (α, β, γ), at ≥1 μM
Experimental: To determine whether a RXR agonist can mediate its effects via RXRα receptor homodimers, RXRβ receptor homodimers, RXRγ receptor homodimers, or any combination thereof, or the corresponding RAR/RXR heterodimers, receptor-mediated transactivation assays were performed. For transactivation assays assessing RXR homodimer signaling, CV-1 cells were transfected with 1) an expression construct including a full length RXRα, RXRβ, or RXRγ; and 2) a rCRBPII/RXRE-tk-Luc reporter construct that included RXR homodimer-specific RXRE/DR1 responsive element linked to a luciferase gene. For transactivation assays assessing RAR/RXR heterodimer signaling, CV-1 cells were transfected with 1) an expression construct comprising a fusion protein including an estrogen receptor (ER) DNA binding domain linked to the ligand binding domain of RARα, RARβ, or RARγ and 2) a ERE-tk-Luc reporter construct that included an estrogen receptor responsive element linked to a luciferase gene. […] Data are mean values±SE from five independent experiments.

Nurr1/RXR = Nurr1/RXR (Homo sapiens, UniProt P19793); test: Permissive heterodimer transactivation assay in COS7 cells; assay type: cell-based
From the text: as §1

[4] = tested on: cuprizone+rapamycin demyelination in C57BL/6J mice; test: Cuprizone/rapamycin 12-week demyelination model, remyelination; assay type: in vivo, mouse; details: 10 mg/kg PO daily for 6 weeks after 12 weeks CR
From the text: All animals were sacrificed after 12 weeks of CR or after further 6 weeks of treatment to evaluate myelin in white matter (corpus callosum) and gray matter (hippocampus and cortex). In addition, the size of myelinated axons was quantified and the large myelinated axons were further assessed by 3D-electron microscopy (3D-EM). A total of 40 animals were included in the study, where all 40 animals received CR demyelination for 12 weeks. After demyelination, a subset (n=10) of animals are sacrificed to serve as controls to assess baseline demyelination. […] Floating brain sections are immunostained with myelin prolipid protein (PLP) to visualize and quantify myelin in gray matter, hippocampus (FIG. 16A) and cortex (FIG. 16B).

[5] = tested on: cuprizone+rapamycin demyelination in C57BL/6J mice; assay type: in vivo; details: 6 weeks concurrent with CR
EAE in B6 mice = test: EAE dose titration in B6 mice with spleen and CNS analysis; assay type: in vivo; details: 200 μg/day vs vehicle
Experimental: A dose titration experiment was also conducted in EAE mice. EAE was induced in 28 B6 mice with MOG/CFA and PT as above. Mice were scored on day 7 as indicated above and divided into groups by score so means are as equal as possible.
At the completion of the experiment, the vehicle control and 200 μg/day groups were euthanized and spleen and CNS samples obtained.

EAE in SJL mice = test: EAE in SJL mice; assay type: in vivo; details: 50 μg i.p. every other day, day 8 to day 14
Experimental: To determine whether a RXR agonist can attenuate multiple sclerosis, SJL mice were immunized to induce EAE by s.c. injection at the base of their spine with 200 μL of adjuvant containing 200 μg proteolipid proteins (139-151) (PLP peptide; Peptides International, Louisville, Ky.) and 400 μg of non-viable M. tuberculosis H37 desiccate emulsified in a mixture of incomplete Freund's adjuvant and PBS. Mice were also given 150 ng of pertussis toxin in PBS i.p. on the same day as PLP emulsion injection and 2 days later. […] Mice were scored using the scale described in Example 3.

Chain of RARα (P10276 183-417 limits assumed, species assumed): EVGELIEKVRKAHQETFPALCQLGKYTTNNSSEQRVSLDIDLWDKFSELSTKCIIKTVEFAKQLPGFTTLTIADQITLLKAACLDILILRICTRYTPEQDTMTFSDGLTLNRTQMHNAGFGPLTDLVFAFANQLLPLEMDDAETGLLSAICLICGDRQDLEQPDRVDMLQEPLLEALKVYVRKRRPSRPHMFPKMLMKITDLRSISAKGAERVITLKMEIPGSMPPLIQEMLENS
Chain of Nurr1/RXR (P43354 whole entry partner, one chain of several): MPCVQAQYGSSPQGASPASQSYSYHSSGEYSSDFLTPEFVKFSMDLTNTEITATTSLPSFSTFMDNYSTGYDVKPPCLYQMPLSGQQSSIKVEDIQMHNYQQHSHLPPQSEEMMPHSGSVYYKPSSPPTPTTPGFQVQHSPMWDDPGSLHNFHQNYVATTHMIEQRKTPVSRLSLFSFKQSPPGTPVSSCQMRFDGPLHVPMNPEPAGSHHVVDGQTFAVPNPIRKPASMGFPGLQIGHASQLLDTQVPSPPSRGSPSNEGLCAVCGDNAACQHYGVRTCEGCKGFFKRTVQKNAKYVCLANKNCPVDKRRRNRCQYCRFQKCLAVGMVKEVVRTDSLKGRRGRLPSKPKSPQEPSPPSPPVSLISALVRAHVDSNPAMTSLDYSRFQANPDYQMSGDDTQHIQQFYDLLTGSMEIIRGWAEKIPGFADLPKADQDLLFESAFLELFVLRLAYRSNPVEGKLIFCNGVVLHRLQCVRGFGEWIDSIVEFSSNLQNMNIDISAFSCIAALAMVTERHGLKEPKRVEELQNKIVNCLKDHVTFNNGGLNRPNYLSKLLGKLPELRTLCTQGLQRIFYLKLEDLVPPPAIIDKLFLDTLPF

`CC(/C=C/[C@@H]1C[C@]1(C)c1ccc2c(c1)C(C)(C)CCC2(C)C)=C\C(=O)O` [IRX4204, 3,7-dimethyl-6(S),7(S)-methano,7-[1,1,4,4-tetramethyl-1,2,3,4-tetrahydronaphth-7-yl]2(E),4(E) heptadienoic acid] was tested, and the “activation of LXRα/RXR heterodimer” value (LXRα/RXR) was “not to transactivate; also recorded: does not activate”, the “activation of LXRβ/RXR heterodimer” value (LXRβ/RXR) was “not to transactivate; also recorded: does not activate” and the “activation of FXR/RXR heterodimer” value (FXR/RXR) was “not to transactivate; also recorded: does not activate”. The “total cell number and pyknotic cells compared to controls” value [1] was “did not show any differences”, the “OPC differentiation into oligodendrocytes (EGFP positive cells) compared to negative control (DMSO)” value ([1]; all tested concentrations except the lowest concentration (1^−6 μM)) was “significant increase in OPC differentiation into oligodendrocytes; also recorded: dose dependent increase” and the “Mbp and Pdgfra expression (real-time qPCR of lesion samples)” value [2] was “increase in Mbp expression and an increase in Pdgfra expression”. The “densities of Olig2+ oligodendrocyte lineage cells and CC1+ differentiated oligodendrocytes in lesions” value ([2]; oral 1-10 mg/kg/day for fourteen days, relative to vehicle) was “increased”, the “Efficacy (% of 1 μM IRX4204) RXRγ” value (RXRγ) was 0.09 ± 0.011 % of 1 μM IRX4204 and the “clinical benefit (myelin imaging, EDSS, visual acuity) compared to placebo controls” value [3] was “Substantial clinical benefit”. The “activity detected at RARs” value (RARα) was “minimal activity”, the “activation of the Nurr1/RXR permissive heterodimer” value (Nurr1/RXR) was “selectively activates” and the “size of myelinated axons in the corpus callosum” value [4] was “significant increase”. The “levels of Iba1 staining (microglia/macrophages) in CC compared to vehicle” value [5] was “no difference”, the “number of SMI32 stained axonal ovoids in CC compared to Vehicle” value [5] was “trend towards decreased number of axonal ovoids” and the “co-expression of IFNγ and IL-17A by CD4 T cells in CNS” value (EAE in B6 mice) was “not significantly different”. For the same molecule, the “CCR6 expression on CD4 T cells” value (EAE in B6 mice; spleen) was “lowered”, the “CD4+CD25hi cells (number)” value (EAE in B6 mice; spleen) was “reduced” and the “CD4+CD25hi cells frequency” value (EAE in B6 mice; spleen) was “not altered”. The “CD49d expression on CD4 T cells” value (EAE in B6 mice; spleen) was “lowered CCR6, but not CD49d”, the “total number of recently activated CD4 T cells (CD69 and CD44)” value (EAE in B6 mice; spleen) was “decreased” and the “symptoms of EAE” value (EAE in SJL mice) was “significantly reduces the symptoms of EAE”.
